# Laboratory results as given in PMC4607639 (Bioorganic & medicinal chemistry letters, 2015).
# What was measured:
# [1] = Aqueous solubility, shake-flask procedure; type: physicochemical; details: for fold less soluble than the corresponding triazines: pyrimidines 7d, 8c versus triazines 7g, 8f
# MT-2 human T-cells = test: Cytotoxicity, inhibition of MT-2 cell growth; type: cell-based; details: inhibition of MT-2 cell growth by 50%
Structure (SMILES),fold less soluble than the corresponding triazines [1],further results
Cc1cn2cc(C#N)cc2c(C)c1Nc1ccnc(Nc2ccc(C#N)cc2)n1 [Compound 7d],2-4 fold,–
Cc1cc2cc(C#N)ccc2c(C)c1Nc1ccnc(Nc2ccc(C#N)cc2)n1 [Compound 8c],2-4 fold,–
Cc1cc2cc(C#N)ccc2c(C)c1Nc1ncnc(Nc2ccc(C#N)cc2)n1 [Compound 8f],–,solubility fold greater than for rilpivirine ([1]; versus rilpivirine): ca. 1000 fold
N#Cc1ccc(Nc2ncnc(Nc3c(F)cc4cc(C#N)ccc4c3F)n2)cc1 [Compound 8h],–,CC50 (MT-2 human T-cells): no cytotoxicity
